Test results taken from US20130065818A1, “Arylamide Compounds And Compositions And Uses Thereof” (POLYMEDIX, priority 2006, published 2013).
Several values for one entry are separate records, joined by “and”; a condition that tells them apart may be missing. Identical values can stand only once.

What was measured:
[1] = system: fluoroquinolone-resistant, methicillin-resistant Staphylococcus aureus (K950); experiment: NZW rabbit keratitis model, corneal colony counts; type: in vivo; settings: Example 11; for Log10 CFU/ml, Mean / Log10 CFU/ml, Median: count 3; for Log10 CFU/ml / CFU/ml: individual cornea; for CFU/ml: Inoculum = 1098 CFU/cornea
Description: (§1) One purpose of the following experiments was to compare the efficacy of 1% Oligomer 2, 0.5% Oligomer 2, and 5% vancomycin in the treatment of a fluoroquinolone-resistant, methicillin-resistant Staphylococcus aureus infection in the NZW rabbit keratitis model with or without intact corneal epithelia.
Nothing was done to the right eyes.
as §1, with “0.25%” for “1%”, “with and without 0.005% benzalkonium chloride,” for “0.5% Oligomer 2,”, “epithelia. The 0.005% benzalkonium chloride has been added to try to increase the penetration of 0.25% Oligomer 2 through the corneal epithelium.” for “epithelia.”
One purpose of the following experiments was to determine the efficacy of 0.25% Oligomer 4, with and without 200 μM Farnesol, and 200 μM Farnesol in the treatment of a fluoroquinolone-resistant and methicillin-resistant Staphylococcus aureus infection in the NZW rabbit keratitis model with or without intact corneal epithelia. The 200 μM Farnesol has been added to try to increase the efficacy and penetration of 0.25% Oligomer 4 through the corneal epithelium.

[2] = NZW rabbit keratitis model, clinical evaluation (Total Ocular Score); settings: for Chemosis / Conj. / Corneal Edema / Corneal Infiltrate / Discharge / Iritis / Total Score: Example 11, Oligomer 4 / Farnesol study; for Chemosis / Conj. / Corneal Edema / Corneal Infiltrate / Discharge / Iritis / Total Score / Total Ocular Score: individual eye; for Total Ocular Score: Example 12 data display
Procedure: Fifteen rabbits were received from Myrtles' Rabbitry, Thompson Station, TN. The clinical isolate of fluoroquinolone-resistant, methicillin-resistant (MRSA) Staphylococcus aureus (K950) was subcultured on 5% sheep blood agar and incubated at 37° C. in 6% CO2 overnight. The next morning, the MRSA strain was suspended in sterile trypticase soy broth to a 0.5 McFarland Standard, containing approximately 5×10^8 cfu/ml of bacteria. The absorbance of the suspension was measured at 650 nm using a Beckman DU-70 spectrophotometer. OD readings of 0.07 corresponded to 5×10^8 cfu/ml of bacteria. This concentration was appropriately diluted in sterile trypticase soy broth to provide the inoculum of approximately 1,000 (1.0×10^3) cfu/eye in 25 μl. Colony counts were performed on the inoculum to determine the actual cfu inoculated. Following general anesthesia with ketamine and xylazine and topical anesthesia with proparacaine and prior to bacterial inoculation in the left eyes, 6 mm areas of the corneal epithelia was removed centrally with an Amoils epithelial scrubber. Nothing was done to the right eyes. The 15 rabbits were then inoculated intrastromally in both eyes with 25 μl of the bacterial dilution of approximately 10^3 cfu/eye of the bacteria. The bacterial inoculation of the left eyes was directly under the epithelial defect created by the Amoils epithelial scrubber. The epithelia were removed in the left corneas in order to determine whether this layer of the cornea is a barrier for Oligomer 2 penetration when compared to the right cornea with an intact epithelium. A colony count was done on the inoculum to determine the actual cfu inoculated. The rabbits were immediately treated with analgesia in the form of and intramuscular injection of ketoprofen, 1.5 mg/kg. After 4 hours, the 15 rabbits were divided into 4 treatment groups and one untreated control group sacrificed at the onset of therapy. Both eyes of each rabbit of the treatment groups were treated with one 37 μl drop of the coded solutions or control Saline or 1 drop of vancomycin from its dropper bottle. The Oligomer 2 concentrations were masked and labeled as 1 and 2. The masked concentrations were 1% Oligomer 2 and 0.5% Oligomer 2 but the specific concentrations of solutions were not known to the lab workers who carried out the experiment. The vancomycin and control (Tris-Buffered Saline) were not masked.
Treatment was scheduled for every 15 minutes for 5 hours (21 total doses). However, PMX-1 and PMX-2 were exhausted after the 19th dose. Therefore, the actual treatment was 15 minutes for 4.5 hours (19 total doses). The 3 rabbits in group V were sacrificed 4 hours PI and large 9.5 mm buttons were removed from the corneas. These were placed in 1 ml of PBS and kept on ice. The corneal buttons were homogenized for 25 seconds on ice using the motorized homogenizer. After homogenization, colony counts were done on the homogenates using 5% sheep blood agar plates to determine the amount of bacteria contained in the corneas at the onset of therapy. Following the completion of therapy, the eyes were examined for clinical signs of infection. One hour after the final treatment, the treated rabbits (Groups I-IV) were sacrificed and large 9.5 mm buttons were removed from the corneas. These were placed in 1 ml of PBS and kept on ice. The corneal buttons were homogenized for 25 seconds on ice using the motorized homogenizer. After homogenization, colony counts were performed on the homogenates using 5% sheep blood agar plates to determine the amount of bacteria contained in the corneas after treatment. The next morning, the plates were counted and the number of cfu/eye of Staphylococcus aureus was determined for each cornea.
Fifteen rabbits were received from Myrtles' Rabbitry, Thompson Station, TN.

[3] = Example 11, abraded epithelium, count 3
[4] = Example 12, Ker-3 and Ker-4 combined, abraded epithelium, count 6
[5] = Example 11, intact epithelium, count 3
[6] = Example 12, Ker-3 and Ker-4 combined, intact epithelium, count 6

SMILES: CC(C)=CCCC(C)=CCCC(C)=CCO [FARN-AE]
- Log10 CFU/ml, Mean ([1]; abraded epithelium): 6.8762 Log10 CFU/ml
- Log10 CFU/ml, Median ([1]; abraded epithelium): 6.8893 Log10 CFU/ml
- Log10 CFU/ml ([1]; abraded epithelium): 6.889 Log10 CFU/ml and 6.823 Log10 CFU/ml and 6.916 Log10 CFU/ml
- CFU/ml ([1]; abraded epithelium): 7750000 CFU/ml and 6650000 CFU/ml and 8250000 CFU/ml
- Chemosis ([2]; abraded epithelium): 2.0 and 1.5 (2×)
- Conj. ([2]; abraded epithelium): 2.0 and 1.5 (2×)
- Corneal Edema ([2]; abraded epithelium): 2.0 and 1.0 (2×)
- Corneal Infiltrate ([2]; abraded epithelium): 1.0 (2×) and 0.5
- Discharge ([2]; abraded epithelium): 2.0 and 1.5 (2×)
- Iritis ([2]; abraded epithelium): 2.0 and 1.5 (2×)
- Total Score ([2]; abraded epithelium): 11.0 and 7.5 and 8.0
- Total Ocular Score, Mean [2, 3]: 8.83
- Total Ocular Score, Median [2, 3]: 8.00
- Total Ocular Score, Mean [2, 4]: 9.083
- Total Ocular Score, Median [2, 4]: 8.500
- Total Ocular Score ([2]; Ker-3, abraded epithelium): 11.0 and 8.5 (2×)
- Total Ocular Score ([2]; Ker-4, abraded epithelium): 11.0 and 7.5 and 8.0

SMILES: CC(C)=CCCC(C)=CCCC(C)=CCO [FARN-IE]
- Log10 CFU/ml, Mean ([1]; intact epithelium): 7.418 Log10 CFU/ml
- Log10 CFU/ml, Median ([1]; intact epithelium): 7.330 Log10 CFU/ml and 7.3304 Log10 CFU/ml
- Log10 CFU/ml ([1]; intact epithelium): 7.655 Log10 CFU/ml and 7.27 Log10 CFU/ml and 7.33 Log10 CFU/ml
- CFU/ml ([1]; intact epithelium): 45200000 CFU/ml and 18600000 CFU/ml and 21400000 CFU/ml
- Chemosis ([2]; intact epithelium): 1.5 (2×) and 1.0
- Conj. ([2]; intact epithelium): 1.5
- Corneal Edema ([2]; intact epithelium): 1.0 (2×) and 0.5
- Corneal Infiltrate ([2]; intact epithelium): 2.0 (2×) and 1.5
- Discharge ([2]; intact epithelium): 1.5 (2×) and 1.0
- Iritis ([2]; intact epithelium): 1.5 (2×) and 2.0
- Total Score ([2]; intact epithelium): 9.0 and 7.0 and 9.5
- Total Ocular Score, Mean [2, 5]: 8.500
- Total Ocular Score, Median [2, 5]: 9.000
- Total Ocular Score, Mean [2, 6]: 9.000
- Total Ocular Score, Median [2, 6]: 9.250
- Total Ocular Score ([2]; Ker-3, intact epithelium): 10.0 (2×) and 8.5
- Total Ocular Score ([2]; Ker-4, intact epithelium): 9.0 and 7.0 and 9.5
